According to PMC11085134, “Chemical Constituents and Anticancer Activities of Marine-Derived Fungus Trichoderma lixii” (Molecules, 2024):
“Also recorded” adds a separate entry of the source. Like-named read-outs stand apart in the source and are kept apart here.

Key:
PANC-1 cancer cells = assay: Anti-austerity assay (cytotoxicity under glucose starvation vs normal glucose); conditions: for Anti-Austerity Activity Selectivity: Glucose − versus Glucose +; for Selective index (SI): IC50 high glucose versus no glucose media
Description: Human myeloma KMS-11, colorectal HT-29, and pancreatic PANC-1 cancer cells were obtained from the Japanese Collection of Research Bioresources (JCRB) Cell Bank (JCRB1179, Osaka, Japan), the American Type Culture Collection (ATCC, HTB-38, Manassas, VA, USA), and the Riken BioResource Research Center (BRC, RCB2095, Ibaraki, Japan), respectively. KMS-11, HT-29, and PANC-1 were cultured in Roswell Park Memorial Institute (RPMI)-1640 medium (Nacalai Tesque, Inc.), McCoy’s 5A medium (Gibco Thermo Fisher Scientific Inc., Waltham, MA, USA), and Dulbecco’s Modified Eagle Medium (DMEM) high glucose (Nacalai Tesque, Inc.), respectively. The culture media contained 10% fetal bovine serum (FBS, Equitech-Bio Inc., Kerrville, TX, USA) and 50 μg/mL kanamycin (Fujifilm Wako Pure Chemical Corporation, Osaka, Japan). To induce cell adaptation to nutrient starvation, PANC-1 was cultured in DMEM no glucose (Nacalai Tesque, Inc.) containing 10% dialyzed FBS (Equitech-Bio Inc.) and 50 μg/mL kanamycin. Human umbilical vein endothelial cells (HUVEC) were obtained from Kurabo Industries Ltd., Osaka, Japan (KE-4109) and cultured in HuMedia-EB2 (Kurabo Industries Ltd.) supplemented with HuMedia-EG (2% FBS, 10 ng/mL human epidermal growth factor, 1.34 μg/mL hydrocortisone, antibacterial agents, 50 μg/mL gentamicin and 50 ng/mL amphotericin B, 5 ng/mL human fibroblast growth factor-B, and 10 μg/mL heparin). Cells were incubated in a humidified incubator at 37 °C in an atmosphere of 5% CO2.
The anti-austerity activity against PANC-1 cell line was investigated by a WST-8 based assay according to the method described above. PANC-1 cells were plated in a 96-well flat bottom plate at a high density of 10,000 cells/100 μL/well in a DMEM high glucose medium overnight. The medium was removed, washed with phosphate-buffered saline (PBS, Nissui Pharmaceutical Co., Ltd., Tokyo, Japan) twice, and then replaced with either DMEM high glucose or DMEM no glucose. After incubation for 12 h, crude extracts (final concentration 100 μg/mL) or serially diluted compounds were added, and the cells were incubated for an additional 12 h. […] Selective index (SI) was based on the difference between the IC50 values obtained from the high glucose and no glucose media. Antimycin A was used as a positive control.

[1] = system: KMS-11 human myeloma cell line; assay: Antiproliferative WST-8 assay, KMS-11; format: cell-based; conditions: read-out: Antiproliferative Activity (IC50 ± SE) KMS-11
Text: (§1) The assessment of antiproliferative effects is a fundamental in vitro assay in the early stages of drug discovery for the screening of potential anticancer compounds that merit further investigation and development for their therapeutic potential in the fight against cancer. The antiproliferative activity of all isolated compounds against three cancer cell lines (KMS-11, HT-29, and PANC-1) was examined by WST-8 based assay according to the manufacturer’s instructions.
(§2) The antiproliferative activity against cancer and normal cell lines was investigated by a WST-8 based assay. […] Compounds to be tested were dissolved in DMSO for stock solution (20 μg/mL) and the final concentration of DMSO was 0.5%. Then, 100 μL of corresponding medium containing 10% WST-8 (Nacalai Tesque, Inc.) was added and incubated for up to 4 h. The absorbance of the formazan products was measured at 450 nm using an iMark^TM microplate reader (Bio-Rad Laboratories, Inc. Hercules, CA, USA). […] Cisplatin (Fujifilm Wako Pure Chemical Corporation) was used as a positive control.

[2] = system: HT-29 human colorectal cell line; assay: Antiproliferative WST-8 assay, HT-29; format: cell-based; conditions: read-out: Antiproliferative Activity (IC50 ± SE) HT-29
Text: as §1, §2

[3] = system: PANC-1 human pancreas cell line; assay: Antiproliferative WST-8 assay, PANC-1; format: cell-based; conditions: read-out: Antiproliferative Activity (IC50 ± SE) PANC-1
Text: as §1, §2

[4] = system: HUVEC (human umbilical vein endothelial cells); assay: Antiproliferative WST-8 assay, HUVEC; format: cell-based; conditions: 48 h, normal cell line, read-out: Antiproliferative Activity (IC50 ± SE) HUVEC
Description: The antiproliferative activity of all eleven isolated compounds against normal cell line HUVEC was also examined by WST-8 based assay (Table 2). […] Further extensive structural modifications and in-depth structure–activity relationship studies are required to enhance efficacy and reduce the side effects on normal cells.
as §2

[5] = system: KMS-11, HT-29, and PANC-1 cancer cell lines; assay: Antiproliferative activity, summary over the three cancer cell lines; format: cell-based, human; conditions: for IC50: Homo sapiens, 48 h, KMS-11, HT-29 and PANC-1, read-out: IC50, antiproliferative, over all tested cancer cell lines
Text: as §1, §2

[6] = system: complex II in the mitochondrial electron transport chain; set-up: method as in PMID 31435860; conditions: cited from earlier work
[7] = set-up: method as in PMID 31030449, PMID 36005532; conditions: cited from earlier work
[8] = set-up: method as in PMID 31030449, PMID 36005532; conditions: cited from earlier work; remark: listed apart in the source
[9] = system: mouse lymphoma L5178Y cell line; set-up: method as in earlier work; conditions: at 28 μM; cited from earlier work
human cervical HeLa = system: human cervical HeLa; set-up: method as in PMID 29144133; conditions: at 50 μM; cited from earlier work
colon HCT-116 = system: colon HCT-116; set-up: method as in PMID 29144133; conditions: at 50 μM; cited from earlier work
breast MCF-7 = system: breast MCF-7; set-up: method as in PMID 29144133; conditions: at 50 μM; cited from earlier work
lung A549 = system: lung A549; set-up: method as in PMID 29144133; conditions: at 50 μM; cited from earlier work
leukemia K562 = system: leukemia K562; set-up: method as in PMID 29144133; conditions: at 50 μM; cited from earlier work
leukemia HL-60 = system: leukemia HL-60; set-up: method as in PMID 29144133; conditions: at 50 μM; cited from earlier work
[10] = set-up: method as in PMID 25659618; conditions: oxygen-labile conjugated diene units; cited from earlier work
Escherichia coli = system: Escherichia coli; set-up: method as in PMID 26728965, PMID 32676071, PMID 32077325, doi:10.1007/s10600-022-03814-7; conditions: cited from earlier work
[11] = system: complex I in helminth mitochondria; conditions: cited from earlier work
[12] = Homo sapiens, PANC-1, 12 h, read-out: Anti-Austerity Activity (IC50 ± SE) Glucose +
[13] = Homo sapiens, PANC-1, 12 h, read-out: Anti-Austerity Activity (IC50 ± SE) Glucose −

Row | SMILES | Anti-Austerity Activity Selectivity (PANC-1 cancer cells) | IC50 (PANC-1 cancer cells; [12]) [µM] | IC50 (PANC-1 cancer cells; [13]) [µM] | Selective index (SI) (PANC-1 cancer cells) | IC50 ([1]; Homo sapiens, KMS-11, 48 h) [µM] | IC50 ([2]; Homo sapiens, HT-29, 48 h) [µM] | IC50 ([3]; Homo sapiens, PANC-1, 48 h) [µM] | IC50 ([4]; Homo sapiens, HUVEC) [µM] | IC50 [5] [µM] | other results
1 | CCCCCC[C@H]1C(=O)O[C@H](C)[C@H](NC(=O)c2cccc(NC=O)c2O)C(=O)O[C@@H](C)[C@@H]1OC(=O)CC(C)C [Antimycin A, reference compound] | selective | > 300 | 0.0162 ± 0.00026 | ≥ 18,480 | – | – | – | – | – | –
2 | N.N.[Cl][Pt][Cl] [Cisplatin, reference compound] | – | – | – | – | – | – | – | – | – | IC50 ([1]; 48 h): 4.91 ± 1.06 µM; IC50 ([2]; 48 h): 10.6 ± 0.83 µM; IC50 ([3]; 48 h): 28.6 ± 3.43 µM; IC50 [4]: 13.7 ± 2.57 µM; IC50 (PANC-1 cancer cells; read-out: Anti-Austerity Activity (IC50 ± SE) Glucose +, 12 h, normal glucose (DMEM high glucose)): > 100 µM; IC50 (PANC-1 cancer cells; read-out: Anti-Austerity Activity (IC50 ± SE) Glucose −, 12 h, glucose starvation (DMEM no glucose)): > 100 µM; IC50 (PANC-1 cancer cells; read-out: IC50 against PANC-1 under both glucose starvation and normal glucose conditions, 12 h, both Glucose − and Glucose +): > 100 µM
3 | COc1ccc2cc(NC(=O)C3=NO[C@H]4[C@H](O)C=C[C@@H](O)[C@@]4(O)C3)c(=O)oc2c1OC [Compound 1, trichodermamide A] | – | > 100 | > 100 | – | > 100 | > 100 | > 100 | > 100 | – | IC50 (PANC-1 cancer cells; Homo sapiens, PANC-1, 12 h, read-out: IC50 against PANC-1 under both glucose starvation and normal glucose conditions): > 100 µM; Antiproliferative activity in words ([5]; all tested cell lines): completely inactive
4 | COc1ccc2cc(NC(=O)C3=NO[C@H]4[C@H](O)C=C[C@@H](Cl)[C@@]4(O)C3)c(=O)oc2c1OC [Compound 2, trichodermamide B] | did not display selectivity; also recorded: not selective | 11.6 ± 1.59 | 17.8 ± 4.75 | – | 1.38 ± 0.12 | 0.73 ± 0.12 | 3.58 ± 0.32 | 1.69 ± 0.26 | 0.7 to 3.6 | –
5 | COc1ccc2cc(NC(=O)[C@@]34C[C@@]5(O)C(ON3)[C@H](O)C=C[C@H]5S4)c(=O)oc2c1OC (stereo partly shown) [Compound 3, aspergillazine A] | selective | > 400 | 75.6 ± 4.08 | ≥ 5 | 38 ± 7.72 | 22.2 ± 3.09 | 50.3 ± 4.21 | 26.2 ± 5.51 | – | –
6 | COc1ccc(C2SSC34CC5(O)C(Cl)C=CC(O)C5ON3C(=O)C2NC4=O)c(O)c1OC (stereo not shown) [Compound 4, DC1149B] | selective | 213 ± 4.07 | 22.4 ± 2.5 | 10 | 7.6 ± 0.4 | 39.2 ± 4.6 | 24.7 ± 4.44 | 6.94 ± 0.86 | – | Inhibition of complex II in the mitochondrial electron transport chain [6]: inhibition
7 | CC(C)[C@@H](C)/C=C/[C@@H](C)[C@H]1CC[C@@H]2[C@]1(C)CC[C@H]1[C@]23C=C[C@]2(C[C@@H](O)CC[C@]12C)OO3 [Compound 5, ergosterol peroxide] | – | > 100 | > 100 | – | > 100 | > 100 | > 100 | > 100 | > 100 | –
8 | COc1cc(O)c2c(=O)c(C)c(C)oc2c1 [Compound 8, 5-hydroxy-2,3-dimethyl-7-methoxychromone] | – | > 100 | > 100 | – | > 100 | > 100 | > 100 | > 100 | > 100 | Antimicrobial activity [7]: weak or no; DPPH scavenging activity [8]: weak or no
9 | CCC(C)C=CC=C(C)CC(C)C=CC=CC1OC(=O)C(O)C2OC12C (stereo not shown) [Compound 9, nafuredin A] | selective | 76.7 ± 3.22 | 49 ± 1.31 | 2 | 6.9 ± 1.84 | 11.9 ± 0.55 | 15.3 ± 0.44 | 2.45 ± 0.16 | 6.9 to 15.3 | Cytotoxicity [9]: no cytotoxicity; Cytotoxicity (human cervical HeLa): no cytotoxicity; Cytotoxicity (colon HCT-116): no cytotoxicity; Cytotoxicity (breast MCF-7): no cytotoxicity; Cytotoxicity (lung A549): no cytotoxicity; Cytotoxicity (leukemia K562): no cytotoxicity; Cytotoxicity (leukemia HL-60): no cytotoxicity; Stability in air [10]: unstable in air; Antibacterial activity against Escherichia coli (Escherichia coli): exhibited antibacterial activity; Inhibition of complex I in helminth mitochondria [11]: selective inhibition
